Assays:
[1] = Growth inhibition of human HL-60(TB) cells assessed as cell growth at 10 uM incubated for 48 hrs by sulforhodamine B assay relative to control; format: functional; details: HL-60, 48 h, read-out: Activity
K562 = test: Growth inhibition of human K562 cells assessed as cell growth at 10 uM incubated for 48 hrs by sulforhodamine B assay relative to control; format: functional; details: K562, 48 h, read-out: Activity
[2] = Growth inhibition of human MOLT4 cells assessed as cell growth at 10 uM incubated for 48 hrs by sulforhodamine B assay relative to control; format: functional; details: MOLT-4, 48 h, read-out: Activity
A549 = test: Growth inhibition of human A549/ATCC cells assessed as cell growth at 10 uM incubated for 48 hrs by sulforhodamine B assay relative to control; format: functional; details: A549, 48 h, read-out: Activity
[3] = Growth inhibition of human HOP92 cells assessed as cell growth at 10 uM incubated for 48 hrs by sulforhodamine B assay relative to control; format: functional; details: HOP-92, 48 h, read-out: Activity
[4] = Growth inhibition of human COLO205 cells assessed as cell growth at 10 uM incubated for 48 hrs by sulforhodamine B assay relative to control; format: functional; details: COLO 205, 48 h, read-out: Activity
[5] = Growth inhibition of human HCC2998 cells assessed as cell growth at 10 uM incubated for 48 hrs by sulforhodamine B assay relative to control; format: functional; details: HCC 2998, 48 h, read-out: Activity
[6] = Growth inhibition of human SW620 cells assessed as cell growth at 10 uM incubated for 48 hrs by sulforhodamine B assay relative to control; format: functional; details: SW-620, 48 h, read-out: Activity
[7] = Cytotoxicity against human GM00637 cells assessed as reduction in cell viability after 72 hrs by MTT assay; format: cell-based; details: GM00637, 72 h
[8] = Quasi-reversible one electron redox potential in dichloromethane containing 0.1 M TBAP assessed as assessed as redox potential during -1/-2 redox transition at 2 mmol measured at 100 mV/s in presence of Fc/Fc by cyclic voltammetry; format: physicochemical
[9] = Mixed-type inhibition of rat liver thioredoxin reductase using DTNB as substrate measured for 50 mins at 5 mins intervals in presence of NADPH by Lineweaver-Burk plot analysis
[10] = Growth inhibition of human SF268 cells assessed as cell growth at 10 uM incubated for 48 hrs by sulforhodamine B assay relative to control; format: functional; details: SF-268, 48 h, read-out: Activity
[11] = Growth inhibition of human SF539 cells assessed as cell growth at 10 uM incubated for 48 hrs by sulforhodamine B assay relative to control; format: functional; details: SF-539, 48 h, read-out: Activity
[12] = Growth inhibition of human SNB19 cells assessed as cell growth at 10 uM incubated for 48 hrs by sulforhodamine B assay relative to control; format: functional; details: SNB-19, 48 h, read-out: Activity
[13] = Growth inhibition of human SNB75 cells assessed as cell growth at 10 uM incubated for 48 hrs by sulforhodamine B assay relative to control; format: functional; details: SNB-75, 48 h, read-out: Activity
[14] = Growth inhibition of human LOXIMVI cells assessed as cell growth at 10 uM incubated for 48 hrs by sulforhodamine B assay relative to control; format: functional; details: LOX IMVI, read-out: Activity
SK-MEL-2 = test: Growth inhibition of human SK-MEL-2 cells assessed as cell growth at 10 uM incubated for 48 hrs by sulforhodamine B assay relative to control; format: functional; details: SK-MEL-2, 48 h, read-out: Activity
SK-MEL-28 = test: Growth inhibition of human SK-MEL-28 cells assessed as cell growth at 10 uM incubated for 48 hrs by sulforhodamine B assay relative to control; format: functional; details: SK-MEL-28, 48 h, read-out: Activity
SK-MEL-5 = test: Growth inhibition of human SK-MEL-5 cells assessed as cell growth at 10 uM incubated for 48 hrs by sulforhodamine B assay relative to control; format: functional; details: SK-MEL-5, 48 h, read-out: Activity
[15] = Growth inhibition of human UACC257 cells assessed as cell growth at 10 uM incubated for 48 hrs by sulforhodamine B assay relative to control; format: functional; details: UACC-257, 48 h, read-out: Activity
[16] = Growth inhibition of human IGROV1 cells assessed as cell growth at 10 uM incubated for 48 hrs by sulforhodamine B assay relative to control; format: functional; details: IGROV-1, 48 h, read-out: Activity
[17] = Growth inhibition of human OVCAR5 cells assessed as cell growth at 10 uM incubated for 48 hrs by sulforhodamine B assay relative to control; format: functional; details: OVCAR-5, 48 h, read-out: Activity
[18] = Growth inhibition of human OVCAR8 cells assessed as cell growth at 10 uM incubated for 48 hrs by sulforhodamine B assay relative to control; format: functional; details: OVCAR-8, 48 h, read-out: Activity
[19] = Growth inhibition of human SKOV3 cells assessed as cell growth at 10 uM incubated for 48 hrs by sulforhodamine B assay relative to control; format: functional; details: SK-OV-3, 48 h, read-out: Activity
786-0 = test: Growth inhibition of human 786-0 cells assessed as cell growth at 10 uM incubated for 48 hrs by sulforhodamine B assay relative to control; format: functional; details: 786-0, 48 h, read-out: Activity
MCF7 = test: Growth inhibition of human MCF7 cells assessed as cell growth at 10 uM incubated for 48 hrs by sulforhodamine B assay relative to control; format: functional; details: MCF7, 48 h, read-out: Activity
[20] = Growth inhibition of human BT549 cells assessed as cell growth at 10 uM incubated for 48 hrs by sulforhodamine B assay relative to control; format: functional; details: BT-549, 48 h, read-out: Activity
ACHN = test: Growth inhibition of human ACHN cells assessed as cell growth at 10 uM incubated for 48 hrs by sulforhodamine B assay relative to control; format: functional; details: read-out: Activity
[21] = Growth inhibition of human RXF393 cells assessed as cell growth at 10 uM incubated for 48 hrs by sulforhodamine B assay relative to control; format: functional; details: RXF 393, 48 h, read-out: Activity
[22] = Growth inhibition of human TK10 cells assessed as cell growth at 10 uM incubated for 48 hrs by sulforhodamine B assay relative to control; format: functional; details: TK-10, 48 h, read-out: Activity
[23] = Growth inhibition of human SF268 cells incubated for 48 hrs by sulforhodamine B assay; format: functional; details: SF-268, 48 h
[24] = Growth inhibition of human BT549 cells incubated for 48 hrs by sulforhodamine B assay; format: functional; details: BT-549, 48 h
[25] = Growth inhibition of human RPMI8226 cells incubated for 48 hrs by sulforhodamine B assay; format: functional; details: RPMI-8226, 48 h
[26] = Growth inhibition of human HOP92 cells incubated for 48 hrs by sulforhodamine B assay; format: functional; details: HOP-92, 48 h
[27] = read-out: pLC50 (the source's name) (converted)

Compound `O=c1ccc2nc(-c3ccccc3)nn(-c3ccccc3)c-2c1` has a growth at 10 µM [1] of -45.5%, a growth at 10 µM (K562) of -39% and a growth at 10 µM [2] of -37.6%. It also gave a growth at 10 µM (A549) of 73.6%, a growth at 10 µM [3] of -33% and a growth at 10 µM [4] of -76.8%. The growth at 10 µM [5] was 100%, the growth at 10 µM [6] was -60.5% and the IC50 [7] was 0.23 µM. For the same compound, the Activity [8] was -1.75 V, the Ki [9] was 3.9 µM and the growth at 10 µM [10] was 70.5%. The growth at 10 µM [11] was 105%, the growth at 10 µM [12] was 76% and the growth at 10 µM [13] was 93.2%. For the same compound, the growth at 10 µM [14] was -51.6%, the growth at 10 µM (SK-MEL-2) was 44.6% and the growth at 10 µM (SK-MEL-28) was 26.4%. For the same compound, the growth at 10 µM (SK-MEL-5) was 19.5%, the growth at 10 µM [15] was -97.3% and the growth at 10 µM [16] was 2.56%. The growth at 10 µM [17] was 102%, the growth at 10 µM [18] was -2.36% and the growth at 10 µM [19] was 59.1%. For the same compound, the growth at 10 µM (786-0) was 48.6%, the growth at 10 µM (MCF7) was -66.7% and the growth at 10 µM [20] was 90.2%. For the same compound, the growth at 10 µM (ACHN) was -96%, the growth at 10 µM [21] was -92.8% and the growth at 10 µM [22] was -95.9%.

With `O=c1ccc2nc(C(F)(F)F)nn(-c3ccccc3)c-2c1` the growth at 10 µM [1] was -36.6%, the growth at 10 µM (K562) was -35.1% and the growth at 10 µM [2] was -20.5%. For the same compound, the growth at 10 µM (A549) was 93%, the growth at 10 µM [3] was 35.2% and the growth at 10 µM [4] was -70.7%. The growth at 10 µM [5] was 102%, the growth at 10 µM [6] was -63.3% and the GI50 [23] was 15.1 µM. The CC50 [23, 27] was 56.2 µM, the TGI ([23]; read-out: pTGI (converted)) was 28.8 µM and the GI50 [24] was 12.3 µM. It also gave a CC50 [24, 27] of 50.1 µM, a TGI ([24]; read-out: pTGI (converted)) of 24.5 µM and an IC50 [7] of 1.61 µM. The Activity [8] was -1.55 V, the growth at 10 µM [10] was 77.4% and the growth at 10 µM [11] was 92.8%. The growth at 10 µM [12] was 93.5%, the growth at 10 µM [13] was 86.5% and the growth at 10 µM [14] was 4.3%. For the same compound, the growth at 10 µM (SK-MEL-2) was 78.3%, the growth at 10 µM (SK-MEL-28) was 35.7% and the growth at 10 µM (SK-MEL-5) was 32.7%. It also gave a growth at 10 µM [15] of 35.6%, a growth at 10 µM [16] of 71.7% and a growth at 10 µM [17] of 102%. The growth at 10 µM [18] was 73.1%, the growth at 10 µM [19] was 79.3% and the growth at 10 µM (786-0) was 22.2%. For the same compound, the growth at 10 µM (MCF7) was -49.3%, the growth at 10 µM [20] was 69.2% and the GI50 [25] was 4.79 µM. The CC50 [25, 27] was greater than 100 µM, the TGI ([25]; read-out: pTGI (converted)) was 77.6 µM and the GI50 [26] was 1.38 µM. For the same compound, the CC50 [26, 27] was 6.17 µM, the TGI ([26]; read-out: pTGI (converted)) was 2.95 µM and the growth at 10 µM (ACHN) was -89%. The growth at 10 µM [21] was -20.4% and the growth at 10 µM [22] was -95%.
